The test system of data set [1] is M. bovis BCG. Format: cell-based, Mycobacterium bovis BCG.
Data set [2] is described as follows: physchem. The following applies: pH 7.4.
For data set [3] the following is noted: lecithin-dodecane lipid layer, 24 h, 25°C.
In data set [4] the test system is human red blood cells. In words: Compound-induced hemolysis of human red blood cells. The following applies: hemolyze 50% of human RBCs vs 2% Triton X-100.
The subject of data set [5] is Mtb H37Rv. Also on record: species or system BALB/c mice. The settings on record: mouse, in vivo.
The conditions of data set [6]: 100 mg/kg po daily over 4 weeks (24 doses).
Data set [7] concerns piniBAC promoter. It counts as cell-based, Mycobacterium bovis BCG. The following applies: 0.4-100 μM, 24 h.
For data set [8] the following is noted: for levels in lung: CD-1, mouse, in vivo; for tolerability in PK study: 25 mg/kg PO single dose, mice.
Data set [9] can be described thus: Electrophilic reactivity to cysteamine by 1H NMR. Format: physicochemical. The following applies: DMSO-d6, 1% acetic acid, up to 24 h.
Data set [10] has as its system M. bovis BCG. In words: microbe, parasite or virus in culture. It counts as cell-based. The following applies: Mycobacterium tuberculosis variant bovis BCG, read-out: MIC MIC50.
The test system of data set [11] is M. bovis BCG. Format: cell-based, Mycobacterium bovis BCG. The source holds these as a separate data set.

Molecules are shown by their SMILES. ≈ marks a conversion by molar mass, not a printed value.

`CCCCCCCCn1cc(CN2CCC3(CC2)OCCO3)c2ccc(OC)cc21` [Compound 1, 8-[(6-methoxy-1-octyl-1H-indolyl-3-yl)methyl]-1,4-dioxa-8-azaspiro[4,5]decane]: in [1], the “kill of mycobacterial cultures by 48 h (time-kill)” value was “still viable at 48h”. Also, in data set [2], the concentration in solution (solubility) came to 23.9 ± 0.8 µM (≈ 9.91 µg/mL). Also, the “PAMPA Effective Permeability (Pe)” value in data set [3] is reported as “Cannot be determined”. The HC50 – broadly, the concentration that lyses half of the red blood cells – in data set [4] amounted to 75 µM. For the same compound, the “bacterial loads in lungs and spleen (CFU)” value in [5] is “only reduced the splenic bacterial load”. Moreover, the “adverse effects during treatment period” value in [6] is given as “no adverse effects were detected”. Also, the “induction of piniBAC promoter activity” value in data set [7] is given as “broadly similar to that of isoniazid”. Also, the levels in lung in [8] is ~ 1 μM.

Take `CCCCCCCCn1cc(CN2CCC3(CC2)OC[C@H](C)O3)c2ccc(OC)cc21` [Compound 7]: the HC50 in data set [4] was 51 µM.

`CCCCCCCCn1cc(CN2CCC3(CC2)OC[C@@H](C)O3)c2ccc(OC)cc21` [Compound 8] displayed an HC50 in data set [4] of 75 µM.

As for `CCCCCCCCn1cc(CN2CCC3(CC2)OCCCO3)c2ccc(OC)cc21` [Compound 12], the “PAMPA Effective Permeability (Pe)” value in [3] is “Cannot be determined”. The “electrophilic reactivity to cysteamine” value in data set [9] was “limited electrophilic reactivity”. The compound also had a concentration for 50% haemolysis (HC50) in [4] of 64 µM. Further, the “bacterial loads in lungs and spleen (CFU)” value in [5] is recorded as “significantly inhibited bacterial growth in both organs”. For the same compound, the “adverse effects during treatment period” value in [6] is reported as “no adverse effects were detected”. Moreover, the “induction of piniBAC promoter activity” value in data set [7] was “increased the transcriptional activity of the piniBAC in a concentration dependent manner”. In [8], the “tolerability in PK study” value is recorded as “did not cause obvious adverse effects” and the levels in lung is recorded as ~ 3 μM. Further, in data set [8] (25 mg/kg PO, CD1 mice), the “Lung concentration at 5 h” value was found to be 1408 ng/g.

As to `CCCCCCCCn1cc(CN2CCC3(CC2)OCCCS3)c2ccc(OC)cc21` [Compound 13], in data set [2], the concentration in solution (solubility) came to 30.9 ± 1.3 µM (≈ 13.7 µg/mL). Moreover, in data set [3], the “PAMPA Effective Permeability (Pe)” value is given as “Cannot be determined”. Further, the “electrophilic reactivity to cysteamine” value in data set [9] was “limited electrophilic reactivity”. Further, in data set [7], the “induction of piniBAC promoter activity” value is “increased the transcriptional activity of the piniBAC in a concentration dependent manner”. Besides, the “tolerability in PK study” value in data set [8] is recorded as “did not cause obvious adverse effects”.

`CCCCCCCCn1cc(CN2CCC3(CC2)OCCCO3)c2ccc(C#N)cc21` [Compound 57e]: the MIC50 in [10] was 0.5 to 0.7 µM (≈ 0.212 to 0.297 µg/mL).

For the compound `CCCCCCCCn1cc(CN2CCC3(CC2)OCCCO3)c2ccc(OCCC)cc21` [Compound 57f], the MIC50 in data set [10] lay within 0.5 to 0.7 µM (≈ 0.228 to 0.32 µg/mL).

Regarding `CCCCCCCCn1cc(CN2CCC3(CC2)OCCCO3)c2ccc(OC(C)C)cc21` [Compound 57g], the MIC50 in data set [10] lay in the range of 0.5 to 0.7 µM (≈ 0.228 to 0.32 µg/mL).

Consider `CCCCCCCCn1cc(CN2CCCCCC2)c2c(F)cccc21` [Compound 71, 3-(azepan-1-ylmethyl)-4-fluoro-1-octyl-1H indole], for which the “membrane potential (DiOC2 red/green ratio)” value in data set [11] is reported as “no depolarization at these early time points”.

The record behind these values is publication PMC6043372 (Journal of medicinal chemistry, 2018).
